Measured values: paper PMC8003416, “Modulation of Human Phenylalanine Hydroxylase by 3-Hydroxyquinolin-2(1H)-One Derivatives” (Biomolecules, 2021)
Entries after “also recorded” stand apart in the source; their conditions may differ.

Experiments:
[1] = molecular target: T1, human phenylalanine hydroxylase (hPAH) (Homo sapiens, UniProt P00439); assay: Steady-state kinetics of hPAH for L-Phe; type: biochemical; details: 100 μM 3HQ; for S0.5 (L-Phe concentration at half-maximal activity) / h (Hill coefficient) / ki (substrate inhibition): 75 μM BH4, 25 °C; for S0.5 (L-Phe concentration at half-maximal activity): Km for compounds 3 and 11 (Michaelis–Menten fits); for Vmax: 75 μM BH4, L-Phe 25 μM to 2.5 mM, 25 °C; for Activation Ratio (L-Phe activation): 100 μM substrate; for kcat/S0.5 (catalytic efficiency): calculated with hPAH subunit MM 55 kDa
T1 construct: Recombinant full-length wild-type (WT) hPAH was expressed in E. coli Top10 cells in fusion with a hexa-histidyl peptide; made in house; host or cells: E. coli Top10
T1 sequence (P00439 1-452): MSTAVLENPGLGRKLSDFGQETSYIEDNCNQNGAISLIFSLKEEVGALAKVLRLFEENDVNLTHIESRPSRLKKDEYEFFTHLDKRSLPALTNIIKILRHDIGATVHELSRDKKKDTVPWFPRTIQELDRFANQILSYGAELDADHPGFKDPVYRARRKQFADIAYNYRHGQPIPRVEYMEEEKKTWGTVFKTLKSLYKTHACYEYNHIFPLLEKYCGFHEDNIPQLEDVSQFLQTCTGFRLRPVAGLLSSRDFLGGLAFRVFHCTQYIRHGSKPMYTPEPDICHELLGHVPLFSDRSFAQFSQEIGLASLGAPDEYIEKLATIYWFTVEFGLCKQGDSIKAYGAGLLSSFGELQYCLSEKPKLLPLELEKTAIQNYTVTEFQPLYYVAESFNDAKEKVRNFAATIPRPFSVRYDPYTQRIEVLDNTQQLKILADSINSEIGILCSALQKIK
Experimental: The hPAH activity was measured essentially as previously described. Briefly, the enzymatic reaction was performed in a 200 μL final volume, containing 250 mM Na-HEPES, pH 7, 0.1 mg/mL catalase (Sigma-Aldrich; St. Louis, MO, USA), 5 μg (final concentration of 0.112 μM of tetramer) of recombinant hPAH tetramers and 100 μM (NH4)2Fe(II)SO4. Using 100 μM L-Phe and 100 μM of tested compound, three experimental conditions were used to study the compounds’ modulatory effect, namely: non activated (NA), 3HQ-activated (3HQ-A) and substrate/3HQ-activated (Phe/3HQ-A) (Supplementary Figure S3). The reaction was started by addition of 75 μM BH4 (Schircks Laboratories; Bauma, Switzerland) prepared in 5 mM ascorbic acid. In the NA assay, the L-Phe substrate and tested compounds were added together with 75 µM BH4 at the start of the hydroxylation reaction. In the 3HQ-A condition, hPAH was pre-incubated with the tested compound for 4 min at 25 °C and the reaction was started by the addition of BH4 together with L-Phe. In the Phe/3HQ-A condition, hPAH was pre-incubated simultaneously with L-Phe and the tested compound (4 min, 25 °C). Appropriate control reactions were performed where the compounds were omitted and 1% DMSO was used. Kinetic parameters were determined using variable concentrations of L-Phe (25 to 2500 μM) and fixed concentrations of BH4 (75 μM) and tested compound (100 μM). After a 1-min incubation, the reaction was stopped, and the amount of L-Tyr produced was quantified by HPLC as previously described. The specific hPAH enzymatic activity is expressed as nmol of L-Tyr produced during 1 min per mg of protein (nmol L-Tyr.min^−1.mg^−1). The steady-state kinetic data were analyzed by nonlinear regression analysis using GraphPad Prism (La Jolla, CA, USA). Data was fitted to the modified Hill equation accounting for cooperative substrate binding as well as substrate inhibition (Equation (1)), to the modified Michaelis–Menten equation which accounts for substrate inhibition (Equation (2)) and to the non-modified Michaelis–Menten equation:v = (Vmax + Vi ([S]^x/Ki^x))/(1 + (K^h/[S]^h) + ([S]^x/Ki^x))(1) v = (Vmax [S])/(Km + [S](1 + [S]/Ki))(2)

[2] = molecular target: T1, human phenylalanine hydroxylase (hPAH); assay: Small-angle X-ray scattering of hPAH; details: 200 μM in buffer/2% DMSO
Experimental: Small-angle X-ray scattering experiments were performed at the Diamond Light Source B21 [30] beamline at a wavelength of 0.95 Å. Tetrameric hPAH was thawed on ice, centrifuged at 12,000× g for 8 min at 4 °C, and quantitated using a NanoDrop (molar extinction coefficient: 10.09 mg/mL/cm) prior to data acquisition. Measurements were performed in static mode with the automated sample changer at 20 °C using a protein concentration of 86 μM (monomer) in 20 mM Na-HEPES, 200 mM NaCl, pH 7.0 in the absence or presence of 2% DMSO. L-Phe and compound 9 were tested at a final concentration of 200 μM in 2% DMSO. Data were recorded using a Pilatus 2M detector covering a momentum transfer 0.0031 < s < 0.380 Å-1 (s = 4π sin θ/λ, where 2θ is the scattering angle). The data were processed and analyzed using the ATSAS program suite. The sample frames were monitored for radiation damage, the selected frames were averaged, and the buffer contribution was subtracted using PRIMUS [32]. The radius of gyration (Rg) and the maximum particle dimension (Dmax) were estimated from the Guinier approximation using PRIMUS and from the pair-distribution function P(r) using the GNOM package, respectively. Fitting of the experimental curves and the theoretical curves computed from SASBDB models was performed using CRYSOL [31].

[3] = test system: HEK-293T cells; assay: Propidium iodide exclusion assay (membrane integrity); type: cell-based; details: 100 μM, 24 h; negative control 1.0 ± 0.1
Experimental: Cytotoxicity of selected 3HQs was assessed in HEK-293T cells using the Alamar Blue assay as a general cell viability endpoint method that monitors the cellular metabolic state, and the propidium iodide (PI) exclusion assay was used to evaluate membrane integrity essentially as described. The 3HQs were tested at a final concentration of 50 and 100 μM (two independent assays; five replicates each). Control assays were performed using 1% DMSO (negative control), or SDS at 1 mg/mL as a positive control of cell death in the PI assay. […] The culture medium was replaced by fresh medium (supplemented as above) containing the different 3HQs to be analyzed. After 24 h incubation, the culture medium was replaced by […] PI (Sigma-Aldrich) in fresh medium (stock solution 1.5 mM in DMSO) and fluorescence was measured (λexc 485 nm, λem 590 nm) in a FLUOstar Omega microplate reader. […] The cells were further incubated for 3 h and fluorescence was measured (λexc 530 nm, λem 590 nm) in a FLUOstar Omega microplate reader (BMG Labtech). The relative PI uptake and cell viability (%) were calculated using Equations (3) and (4), respectively. Relative PI uptake = Fluorescence intensitysample/Fluorescence intensitynegative control(3) Relative cell viability (%) = Fluorescence intensitysample/Fluorescence intensitycontrol × 100(4)

CCOC(=O)[C@H](Cc1ccccc1)NC(=O)c1c(O)c(=O)[nH]c2ccc(OC(F)(F)F)cc12 [Compound 3]
effect on hPAH kinetic behaviour [1]: weak competitive inhibitors; also recorded: loss of cooperativity
S0.5 (L-Phe concentration at half-maximal activity) [1]: 206 ± 99 µM
Vmax [1]: 4.82 ± 0.64 10^3 nmol Tyr.min^−1.mg^−1
Activation Ratio (L-Phe activation) [1]: 1.3
kcat/S0.5 (catalytic efficiency) [1]: 21700 M⁻¹ s⁻¹

N[C@@H](Cc1ccccc1)C(=O)O [L-Phe, L-phenylalanine, reference compound]
Dmax of hPAH [2]: 179 Å
MM of hPAH (MM = VP/1.6) [2]: 393 kDa
Rg^Guinier of hPAH [2]: 52.73 ± 0.07 Å
VP (excluded particle volume) of hPAH [2]: 629,301 Å^3

COC(=O)CC[C@H](NC(=O)c1c(O)c(=O)[nH]c2ccc(OC(F)(F)F)cc12)C(=O)OC [Compound 9]
h (Hill coefficient) [1]: 1.9 ± 0.8
ki (substrate inhibition) [1]: 23.3 ± 0.5 mM
S0.5 (L-Phe concentration at half-maximal activity) [1]: 108 ± 34 µM
Vmax [1]: 3.94 ± 0.64 10^3 nmol Tyr.min^−1.mg^−1
Activation Ratio (L-Phe activation) [1]: 1.4
kcat/S0.5 (catalytic efficiency) [1]: 33300 M⁻¹ s⁻¹
Dmax of hPAH [2]: 189 Å
MM of hPAH (MM = VP/1.6) [2]: 268 kDa
Rg^Guinier of hPAH [2]: 52.14 ± 0.07 Å
Rg^P(r) of hPAH [2]: 52.00 ± 0.05 Å
VP (excluded particle volume) of hPAH [2]: 428,899 Å^3
relative PI uptake [3]: 1.0 ± 0.0

O=C(NCCc1ccccc1)c1c(O)c(=O)[nH]c2ccc(OC(F)(F)F)cc12 [Compound 8]
effect on hPAH kinetic behaviour [1]: weak competitive inhibitors
h (Hill coefficient) [1]: 1.2 ± 0.3
ki (substrate inhibition) [1]: 7.2 ± 0.2 mM
S0.5 (L-Phe concentration at half-maximal activity) [1]: 115 ± 9 µM
Vmax [1]: 4.38 ± 0.94 10^3 nmol Tyr.min^−1.mg^−1
Activation Ratio (L-Phe activation) [1]: 1.7
kcat/S0.5 (catalytic efficiency) [1]: 35000 M⁻¹ s⁻¹

COC(=O)CNC(=O)c1c(O)c(=O)[nH]c2ccc(OC(F)(F)F)cc12 [Compound 11]
effect on hPAH kinetic behaviour [1]: loss of cooperativity
ki (substrate inhibition) [1]: 2.5 ± 0.3 mM
S0.5 (L-Phe concentration at half-maximal activity) [1]: 386 ± 97 µM
Vmax [1]: 7.75 ± 1.23 ** 10^3 nmol Tyr.min^−1.mg^−1
Activation Ratio (L-Phe activation) [1]: 1.5
relative PI uptake [3]: 1.0 ± 0.1
